Test results reported in patent publication EP0677522A1, “8-METHOXYQUINOLONECARBOXYLIC ACID DERIVATIVE” (priority 1992, dated 1994).
In brackets after ≈: the same amount, converted by molar mass.

How the values were obtained:
[1] = tested on: S. aureus MRSA Y-238; assay: MIC of the infectious bacteria used for experimental infection; format: cell-based; conditions: Staphylococcus aureus, infectious strain of the mouse protection test
Method: (§1) The in vitro antibacterial activity (minimum inhibitory concentration, MIC, µg/ml) of the test compounds was determined according to Japan Society of Chemotherapy Standard [Chemotherapy, vol. 29, pp 76-79 (1981)].
(§2) Experimental infection was caused by intraperitoneal inoculation of respective bacteria to male mice. One hour after the inoculation, a test compound was orally administered to the mice. The therapeutic effect of each test compound was evaluated by reference to the 50% effective dose (ED₅₀) which was based on the survival ratio at 7 days after the administration according to the probit method [Proc. Soc. Exp. Med., Vol. 57, p 261-264 (1944)]. The minimum inhibitory concentration (MIC) of the infectious bacteria used was also determined. […]

[2] = tested on: S. aureus Smith; assay: as above; format: cell-based; conditions: Staphylococcus aureus; infectious strain of the mouse protection test
Method: as §1, §2

[3] = tested on: E. coli KC-14; assay: as above; format: cell-based; conditions: Escherichia coli, KC14; infectious strain of the mouse protection test
Method: as §1, §2

[4] = tested on: S. aureus MRSA Y-238; assay: Protection of mice from experimental infection; format: in vivo; conditions: oral administration one hour after inoculation, survival ratio at 7 days
Method: as §2

[5] = tested on: S. aureus Smith; assay: Protection of mice from experimental infection; format: in vivo; conditions: male mice; intraperitoneal inoculation 2.8×10⁶ cells/mouse (123×LD₅₀); oral administration one hour after inoculation; survival ratio at 7 days, probit method
Method: as §2

[6] = tested on: E. coli KC-14; assay: Protection of mice from experimental infection; format: in vivo; conditions: oral administration one hour after inoculation, survival ratio at 7 days
Method: as §2

[7] = tested on: Streptococcus pyogenes C-203; assay: In vitro antibacterial activity (MIC), Japan Society of Chemotherapy Standard; format: cell-based; conditions: C203, inoculated cells 10⁶ cells/ml, medium supplemented with 10% horse blood
Method: as §1
(§3) Inoculated cells were 10⁶ cells/ml and the strain with * was incubated in a medium supplemented with 10% horse blood. The mark "1)" means quinolone resistant MRSA and "2)" means quinolone resistant bacteria.

[8] = tested on: Acinetobacter calcoaceticus ATCC 13006; assay: as above; format: cell-based; conditions: ATCC13006, inoculated cells 10⁶ cells/ml
Method: as §1, §3

[9] = tested on: L.monocytogenes VTU-206; assay: as above; format: cell-based; conditions: Listeria monocytogenes, VTU206; inoculated cells 10⁶ cells/ml; medium supplemented with 10% horse blood
Method: as §1, §3

[10] = tested on: E. faecalis EFY-204; assay: as above; format: cell-based; conditions: Enterococcus faecalis, EFY204; quinolone resistant bacteria; inoculated cells 10⁶ cells/ml
Method: as §1, §3

[11] = tested on: S. pneumoniae Type-III; assay: as above; format: cell-based; conditions: Streptococcus pneumoniae; inoculated cells 10⁶ cells/ml; medium supplemented with 10% horse blood
Method: as §1, §3

[12] = tested on: Klebsiella pneumoniae DT; assay: as above; format: cell-based; conditions: inoculated cells 10⁶ cells/ml
Method: as §1, §3

[13] = tested on: Escherichia coli NIHJ JC-2; assay: as above; format: cell-based; conditions: NIHJJC2, inoculated cells 10⁶ cells/ml
Method: as §1, §3

[14] = tested on: P.aeruginosa U-31; assay: as above; format: cell-based; conditions: Pseudomonas aeruginosa, U31; inoculated cells 10⁶ cells/ml
Method: as §1, §3

[15] = tested on: P. mirabilis IFO 3849; assay: as above; format: cell-based; conditions: Proteus mirabilis, IFO3849; inoculated cells 10⁶ cells/ml
Method: as §1, §3

[16] = tested on: M.catarrhalis ATCC 25238; assay: as above; format: cell-based; conditions: Moraxella catarrhalis, ATCC25238; inoculated cells 10⁶ cells/ml; medium supplemented with 10% horse blood
Method: as §1, §3

[17] = tested on: S. epidermidis ATCC 12228; assay: as above; format: cell-based; conditions: Staphylococcus epidermidis, ATCC12228; inoculated cells 10⁶ cells/ml
Method: as §1, §3

[18] = tested on: Serratia marcescens IFO 12648; assay: as above; format: cell-based; conditions: IFO12648, inoculated cells 10⁶ cells/ml
Method: as §1, §3

[19] = tested on: Staphylococcus aureus FDA 209P; assay: as above; format: cell-based; conditions: FDA209P, inoculated cells 10⁶ cells/ml
Method: as §1, §3

[20] = tested on: E. faecium EFMY-207; assay: as above; format: cell-based; conditions: Enterococcus faecium, EFMY207; quinolone resistant bacteria; inoculated cells 10⁶ cells/ml
Method: as §1, §3

[21] = tested on: A.calcoaceticus IFO 13006; assay: as above; format: cell-based; conditions: Acinetobacter calcoaceticus, IFO13006; inoculated cells 10⁶ cells/ml
Method: as §1, §3

[22] = tested on: K.pneumoniae DT-S; assay: as above; format: cell-based; conditions: Klebsiella pneumoniae; inoculated cells 10⁶ cells/ml
Method: as §1, §3

[23] = tested on: Corynebacterium diphtheriae Tronto; assay: as above; format: cell-based; conditions: inoculated cells 10⁶ cells/ml, medium supplemented with 10% horse blood
Method: as §1, §3

[24] = tested on: Pseudomonas aeruginosa IFO 12582; assay: as above; format: cell-based; conditions: IFO12582, inoculated cells 10⁶ cells/ml
Method: as §1, §3

[25] = tested on: Shigella flexneri EW-10; assay: as above; format: cell-based; conditions: EW10, inoculated cells 10⁶ cells/ml
Method: as §1, §3

[26] = tested on: Citrobacter freundii IFO 12681; assay: as above; format: cell-based; conditions: IFO12681, inoculated cells 10⁶ cells/ml
Method: as §1, §3

[27] = tested on: Enterobacter cloacae IFO 12937; assay: as above; format: cell-based; conditions: IFO12937, inoculated cells 10⁶ cells/ml
Method: as §1, §3

[28] = tested on: Enterococcus faecalis LS-101; assay: as above; format: cell-based; conditions: LS101, inoculated cells 10⁶ cells/ml
Method: as §1, §3

[29] = tested on: S. epidermidis SEY-223; assay: as above; format: cell-based; conditions: Staphylococcus epidermidis, SEY223; quinolone resistant bacteria; inoculated cells 10⁶ cells/ml
Method: as §1, §3

[30] = tested on: Proteus vulgaris IFO 3988; assay: as above; format: cell-based; conditions: IFO3988, inoculated cells 10⁶ cells/ml
Method: as §1, §3

[31] = tested on: S. aureus No.88; assay: as above; format: cell-based; conditions: Staphylococcus aureus; quinolone resistant MRSA; inoculated cells 10⁶ cells/ml
Method: as §1, §3

Question: Which MIC [1] does the source give for `CC1COc2c(N3CCN(C)CC3)c(F)cc3c(=O)c(C(=O)O)cn1c23` (stereo not drawn) [Comp. Ex. 2, 9-fluoro-2,3-dihydro-3-methyl-10-(4-methyl-1-piperazinyl)-7-oxo-7H-pyrido [1. 2. 3-de) [1.4] benzoxazine-6-carboxylic acid, reference compound] here?
Answer: The MIC was over 100 µg/mL.

Question: And the MIC [2]?
Answer: The MIC was 0.05 µg/mL.

Question: What about the MIC [3] of the same molecule?
Answer: The MIC was 0.05 µg/mL.

Question: What about the “ED₅₀ (mg/mouse) (95% confidence limit)” value ([4]; Table 3-1: male mice, intraperitoneal inoculation 7.5×10⁶ cells/mouse (185×LD₅₀)) of the same molecule?
Answer: The value was over 16 mg/mouse.

Question: What about the “ED₅₀ (mg/mouse) (95% confidence limit)” value ([4]; Table 3-2: male mice, intraperitoneal inoculation 7.5×10⁵ cells/mouse (185×LD₅₀)) of the same molecule?
Answer: The value was over 16 mg/mouse.

Question: What about the “ED₅₀ (mg/mouse) (95% confidence limit)” value [5] of the same molecule?
Answer: Its value is 0.208(0.137-0.344) mg/mouse.

Question: And the “ED₅₀ (mg/mouse) (95% confidence limit)” value ([6]; Table 3-1: male mice, intraperitoneal inoculation 5.0×10⁶ cells/mouse (744×LD₅₀))?
Answer: Its value is 0.012(0.009-0.018) mg/mouse.

Question: What about the “ED₅₀ (mg/mouse) (95% confidence limit)” value ([6]; Table 3-2: male mice, intraperitoneal inoculation (744×LD₅₀)) of the same molecule?
Answer: Its value is 0.012(0.009-0.018) mg/mouse.

Question: What about the MIC [7] of the same molecule?
Answer: The MIC was 1.56 µg/mL (≈ 4.32 µM).

Question: And the MIC [8]?
Answer: The MIC was 0.2 µg/mL (≈ 0.553 µM).

Question: What about the MIC [9] of the same molecule?
Answer: The MIC was 3.13 µg/mL (≈ 8.66 µM).

Question: What about the MIC [10] of the same molecule?
Answer: The MIC was 50 µg/mL (≈ 138 µM).

Question: And the MIC [11]?
Answer: The MIC was 0.78 µg/mL (≈ 2.16 µM).

Question: What about the MIC [12] of the same molecule?
Answer: The MIC was 0.1 µg/mL (≈ 0.277 µM).

Question: What about the MIC [13] of the same molecule?
Answer: Its MIC is 0.05 µg/mL (≈ 0.138 µM).

Question: What about the MIC [14] of the same molecule?
Answer: The MIC was 1.56 µg/mL (≈ 4.32 µM).

Question: And the MIC [15]?
Answer: Its MIC is 0.39 µg/mL (≈ 1.08 µM).

Question: And the MIC [16]?
Answer: Its MIC is 0.1 µg/mL (≈ 0.277 µM).

Question: And the MIC [17]?
Answer: Its MIC is 0.2 µg/mL (≈ 0.553 µM).

Question: What about the MIC [18] of the same molecule?
Answer: The MIC was 0.2 µg/mL (≈ 0.553 µM).

Question: What about the MIC [19] of the same molecule?
Answer: The MIC was 0.2 µg/mL (≈ 0.553 µM).

Question: What about the MIC [20] of the same molecule?
Answer: The MIC was 100 µg/mL (≈ 277 µM).

Question: What about the MIC [21] of the same molecule?
Answer: Its MIC is 0.2 µg/mL (≈ 0.553 µM).

Question: And the MIC [22]?
Answer: The MIC was 0.05 µg/mL (≈ 0.138 µM).

Question: What about the MIC [23] of the same molecule?
Answer: The MIC was 0.39 µg/mL (≈ 1.08 µM).

Question: And the MIC [24]?
Answer: Its MIC is 1.56 µg/mL (≈ 4.32 µM).

Question: What about the MIC [25] of the same molecule?
Answer: Its MIC is 0.05 µg/mL (≈ 0.138 µM).

Question: And the MIC [26]?
Answer: Its MIC is 0.1 µg/mL (≈ 0.277 µM).

Question: And the MIC [27]?
Answer: The MIC was 0.39 µg/mL (≈ 1.08 µM).

Question: And the MIC [28]?
Answer: The MIC was 0.39 µg/mL (≈ 1.08 µM).

Question: What about the MIC [29] of the same molecule?
Answer: Its MIC is over 100 µg/mL.

Question: And the MIC [30]?
Answer: Its MIC is 0.1 µg/mL (≈ 0.277 µM).

Question: What about the MIC [31] of the same molecule?
Answer: The MIC was 50 µg/mL (≈ 138 µM).
